# In US12365739B2, “Monoclonal antibodies to angiotensin-(1-12), compositions including the same, and methods of use thereof” (Wake Forest University Health Sciences, priority 2021, dated 2025):
# Legend:
# TGR(hAGT)L1623 rats = conditions: chronic administration; cited from earlier work
# Ang II = biological target: T1, Ang II (Homo sapiens, UniProt P01019); test: Specificity of immunoneutralization: pressor response to Ang II; type: in vivo
# T1 construct: host or cells: injected into TGR(hAGT)L1623 rats
# Experimental: In a separate group of 12 TGR(hAGT)L1623 rats (6 females) the blood pressure and heart rate responses to intravenous bolus injection of a monoclonal antibody directed against the human amino acid sequence of Ang-(1-12) [Ang-(1-12)-mAb] was administered at a dose of 30 mg/kg. […] The Ang-(1-12)-mAb was diluted in physiological saline to a concentration of 30 mg in a volume not to exceed 1 mL of buffered saline. The specificity of the immunoneutralization of Ang-(1-12) was evaluated in additional experiments in which the rat sequence of Ang-(1-12) (300 pmol/kg, n=2); Ang II (50 pmol/kg; n=3 TGR(hAGT)L1623 rats) or an […] mouse IgG (30 mg/kg, n=4 TGR(hAGT)L1623 rats; Innovative Research, Inc. Novi, MI) were administered intravenously.
# [1] = tested on: isolated carotid artery rings; test: Ang-(1-12) constrictor activity in isolated carotid artery rings; parameters: species or system rat; conditions: concentration of 5×10^−1; SD and TGR(hAGT)L1623 rats; FIG. 7
# Text: Efficacy of Ang-(1-12) Immunoneutralization in Isolated Carotid Arteries. The ability of the Ang-(1-12)-mAb to block Ang-(1-12) vasoconstrictor activity in 6 SD and 3 TGR(hAGT)L1623 rats was further assessed in isolated carotid artery rings that were mounted in organ chambers as described elsewhere.^3 Under a dissecting microscope, both carotid arteries were dissected free of adventitial tissue, cut into 1.5-2 mm segments and mounted on a myograph (Multi Myograph, Model 610M Danish Myo Technologies, Aarhus, Denmark) using two stainless steel hooks. In all the arterial segments, the endothelium was disrupted by passing a human hair through the lumen of the vessel. The myograph chamber was filled with Krebs-Henseleit buffer (KHB) solution, maintained at 37° C. and aerated with 95% O2/5% CO2. The vessels were washed and incubated for 30 min before determining the optimal diameter. Each arterial segment was stretched to its individual optimal lumen diameter following the normalization procedure previously described. In all studies, after obtaining the optimal diameter, a 30-min equilibration period preceded the addition of the test substances. Contractile responses to a single dose of 62.5 mM KCl was obtained for all segments by calculating the average of three consecutive doses tested at 15 min intervals. This response was used to normalize tension between individual arterial segments. […]
# [2] = tested on: Sprague Dawley (SD) rats and TGR(hAGT)L1623 rats; test: Systemic vasoconstrictor activity of intravenous h-Ang-(1-12); type: in vivo, rat; conditions: for time to peak of increase in mean arterial pressure: 75-300 pmol/kg i.v.
# Experimental: Efficacy of Ang-(1-12) Immunoneutralization in vivo: We examined the systemic vasoconstrictor activity of Ang-(1-12) (dose range 75-300 pmol) in 20 (10 females) Sprague Dawley (SD) rats (age 12-weeks) and 20 (10 female) other rats expressing the human sequence of the AGT gene [TGR(hAGT)L1623] (age 10-12 weeks) following induction of general anesthesia with thio-butabarbital sodium [Inactin® (135 mg/kg, i.p.)] and tracheal intubation for mechanical ventilation. Plastic catheters were introduced into a left carotid artery [PE-50 catheter attached to a heparinized saline wash syringe (15 USP U/mL) and a femoral vein (PE-10) for drug delivery. Phasic and mean arterial pressures, recorded with a True Wave pressure transducer (Edwards Lifesciences, Co, Irvine, CA) connected to the arterial cannula, were processed by a data-acquisition and analysis system with Acknowledge 5 software (MP160, BIOPAC System Inc., Goleta, CA). Heart rate was derived by the software from the electrical analysis of the rise portion of the pressure waveform.
compound,measurement,setting,value
CCCCC(=O)N(Cc1ccc(-c2ccccc2-c2nnn[nH]2)cc1)[C@H](C(=O)O)C(C)C [valsartan],effect on hypertension,TGR(hAGT)L1623 rats,Reversal of the hypertension
angiotensin II (DRVYIHPF; listed as Homo sapiens) [Ang II],peak mean arterial pressure after bolus intravenous Ang II,"Ang II; 30-60 min after delivery of the Ang-(1-12) mAb, baseline 100±12 mm Hg",117±13 mm Hg
same,peak mean arterial pressure after bolus intravenous Ang II,"Ang II; before the Ang-(1-12) mAb, baseline 95±6 mm Hg",114±8 mm Hg
human angiotensin-(1-12) (DRVYIHPFHLVI; listed as Homo sapiens) [h-Ang-(1-12)],constrictor responses in carotid artery rings normalized for KCL,[1],significant constrictor responses
same,time to peak of increase in mean arterial pressure,[2]; SD rats,32.45 ± 1.08 s
same,time to peak of increase in mean arterial pressure,[2]; TGR(hAGT)L1623 rats,36.20 ± 1.52 s
same,change in mean arterial pressure,[2]; i.v. doses between 75 pmol/kg and 300 pmol/kg,rapid and dose-dependent increases
